The data set in a line: gradient 5% acetonitrile 3 min, to 50% in 2 min, to 85% in 15 min, held 3 min, 100 µL/min. The settings on record: column: Zorbax Extend-C18 2.1 x 50 mm; eluents: water / acetonitrile, 0.1% formic acid. The method in brief:
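Values are retention times taken from adduct peaks that software picked and an analyst inspected. The pure standards were run as mixtures of ~100 molecules on HPLC linked to a quadrupole time-of-flight mass spectrometer, in positive and negative ionization mode. A Zorbax Extend-C18 column (2.1 × 50 mm, 1.8 μm) was used at 100 μL/min with water and acetonitrile, each including 0.1% formic acid.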
For the compound `CCOC(=O)c1c(C)[nH]c(C)c1S(=O)(=O)NCC(=O)N1CCN(c2ccccn2)CC1`, the RP-LC retention time is 599 s.
`O=C(NCc1ccc(Cl)cc1)C1CC(=O)N(CCc2c[nH]c3ccc(F)cc23)C1` (stereo not drawn) yielded an RP-LC retention time of 802 s.
`CC1CCCN(c2ccn3c(=O)n(CC(=O)N(C)c4ccccc4)nc3n2)C1` (stereo not drawn) showed an RP-LC retention time of 742 s.
With `CC1CCN(S(=O)(=O)c2ccc(-c3nnc(C(=O)NCCCOC(C)C)o3)cc2)CC1` the figure was 1030 s; with `COc1ccc(N2CCN(c3nc(C(=O)N4CCCC4)cs3)CC2)cc1`, 853 s.
For the compound `Cc1[nH]c(C(=O)N2CCCC(C(=O)NCCN3CCN(C)CC3)C2)c(C)c1C(=O)OC(C)C` (stereo not drawn), the RP-LC retention time worked out at 598 s.
Under `CCC(C)NC(=O)Cn1nc(-c2nc(-c3cccc(C)c3)no2)c2ccccc21` (stereo not drawn) stands 1170 s; under `O=C(NC1CC1)C1CCN(S(=O)(=O)c2ccc3[nH]c4c(c3c2)CCCCC4)CC1`, 862 s.
Compound `COc1ccc(Cl)c2c(=O)c3c([nH]c12)CCN(CC(=O)Nc1ccccc1F)C3` yielded an RP-LC retention time of 604 s.
`CC(C)CN1CCN(C(=O)CCC2CCCN(c3cc(NC4CC4)ncn3)C2)CC1` (stereo not drawn) registered an RP-LC retention time of 547 s.
`Cc1nc(-c2csc(S(=O)(=O)N3CCCC(C(=O)Nc4ccc(F)c(F)c4)C3)c2)no1` (stereo not drawn): the RP-LC retention time is 1020 s.
As for `CCOC(=O)CC1(NC(=O)N2CCN(c3nc4ccccc4n3CC)CC2)CCCCC1`, the RP-LC retention time came to 703 s.
Regarding `CCCn1c(-c2cccc(C(=O)NC(C)c3ccccc3)c2)nc2cccnc21` (stereo not drawn), the RP-LC retention time is 824 s.
`CCOC(=O)c1c(C)c(C(=O)NCc2ccccc2Cl)c(C)n1CC` gave an RP-LC retention time of 929 s.
`O=C(COc1coc(CN2CCc3ccccc32)cc1=O)NCc1ccc2c(c1)OCO2` gave an RP-LC retention time of 781 s.
Under `O/N=C(/c1ccccc1)c1ccc2c3c(cccc13)CC2` stands 1140 s; under `O=C(Cn1nc2c(N3CCCCCC3)nccn2c1=O)Nc1cc(F)ccc1F`, 731 s.
Consider `COc1ccc(NC(=O)NC2CCN(c3ccc(C)c(C)c3)C2=O)cc1` (stereo not drawn), for which the RP-LC retention time turned out to be 821 s.
Take `COc1ccc(-c2noc(Cn3nc(-c4ccccc4)ccc3=O)n2)c(OC)c1`: the RP-LC retention time was 880 s.
Compound `O=C(CSc1nccn1Cc1ccc2c(c1)OCO2)Nc1ccccc1F` had an RP-LC retention time of 621 s.
Regarding `CC1=C(c2ccccc2)S(=O)(=O)N=C1N1CCCN(C(=O)C(C)(C)C)CC1`, the RP-LC retention time is 803 s.
In the case of `COCc1cc2nn(CC(=O)Nc3ccccc3)c(=O)n2c(-c2ccccc2)n1`, the RP-LC retention time was 800 s.
The compound `COCCNC(=O)C1c2cc(OC)c(OC)cc2C(=O)N(C)C1c1ccc(OC)c(OC)c1` (stereo not drawn) showed an RP-LC retention time of 642 s.
In turn, `Cc1ccccc1CN1CCC2(CC1)CC(O)(c1ccccn1)CCO2` (stereo not drawn) came in with an RP-LC retention time of 570 s.
For `COc1ccc2[nH]cc(CCN3CC(C(=O)Nc4cccc(C)c4C)CC3=O)c2c1` (stereo not drawn), the RP-LC retention time was 771 s.
`O=C(Cn1cnc2ccccc2c1=O)N[C@H](C(=O)O)c1ccccc1` returned an RP-LC retention time of 642 s.
For the compound `O=C(NCc1ccc(F)cc1)c1ccc2c(c1)CCN2C(=O)C1CC1`, the RP-LC retention time came out at 813 s.
With `CCOc1ccc(S(=O)(=O)N2CCC[C@@H]2C(=O)NCc2csc(C)n2)cc1` the figure was 743 s; with `CCn1nccc1C(=O)N1CCc2c(-c3ccc(OC)cc3)cccc2[C@H]1C`, 1040 s.
Under `CC1CCN(S(=O)(=O)c2ccc(-c3cc(C(F)(F)F)on3)o2)CC1` stands 1190 s.
`CCc1ccc(NC(=O)N2CCN(c3cc(C)nc(N4CCOCC4)n3)CC2)cc1` registered an RP-LC retention time of 668 s.
As for `Cc1cc(C(F)F)n2nc(C(=O)Nc3ccc(C(C)C)cc3)nc2n1`, the RP-LC retention time was 952 s.
For the compound `CCN(Cc1ccccc1)Cc1nc(-c2ccc(N3CCCC3)nc2)no1`, the RP-LC retention time is 640 s.
`CCOC(=O)c1ccc(Nc2c(-c3ccc(N(C)C)cc3)nc3cnccn23)cc1` displayed an RP-LC retention time of 827 s.
With `Cn1cnnc1SCCNC(=O)C1CN(c2nc3ccccc3s2)C1` the figure was 573 s; with `O=C(NCc1ccccc1F)c1ccc2c(c1)ncn2CCN1CCCC1`, 574 s; with `O=C(CCC(=O)Nc1noc2ccccc12)NCCc1ccc(Cl)cc1`, 816 s.
As for `CCc1ccc(NC(=O)N2CCc3c(c(-c4nnc(-c5ccc(F)cc5)o4)nn3C)C2)cc1`, the RP-LC retention time is 965 s.
For the compound `COC(=O)C[C@](O)(CCCC(C)(C)O)C(=O)O[C@@H]1C(OC)=C[C@]23CCCN2CCc2cc4c(cc2[C@H]13)OCO4`, the RP-LC retention time was determined as 662 s.
As for `O=C(NC1CC1)c1c2c(nc3ccccc13)CCCC2`, the RP-LC retention time is 585 s.
In turn, `CC(C)C(=O)N1CCc2cc(-c3ccc(C(=O)NCCCN4CCN(C)CC4)cc3)ccc21` yielded an RP-LC retention time of 607 s.
Take `Cc1cccc(NC(=O)Cn2c(-c3cnccn3)nc(C)c(C)c2=O)c1C`: the RP-LC retention time came out at 743 s.
Under `Cc1cc(C(=O)N2CCCCC2)c2c(=O)n(CC(=O)NCCC(C)C)c(=O)n(C)c2n1` stands 790 s.
On to `COc1cccc(N2CCN(c3ccnc(SCC(=O)Nc4ccc(Cl)cc4)n3)CC2)c1`, for which the RP-LC retention time is 805 s.
In turn, `CCOC(=O)C1CCN(C(=O)Cn2nc3c(N4CCCCCC4)nccn3c2=O)CC1` returned an RP-LC retention time of 652 s.
The compound `CCOc1ccccc1-n1nnc(C(=O)OC)c1C(=O)OC` showed an RP-LC retention time of 862 s.
Regarding `CCOC(=O)Cc1csc(NC(=O)C2CCCN(c3ncnc4c3nc3n4CCCCC3)C2)n1` (stereo not drawn), the RP-LC retention time amounted to 810 s.
With `O=C(Nc1ccc(Cl)cc1)C1CCN(S(=O)(=O)c2ccc3[nH]c(=O)sc3c2)CC1`, the RP-LC retention time was 854 s.
With `CCCN(CC1CCOC1)C(=O)NCc1ccc(C)cc1` (stereo not drawn) the figure was 796 s.
With `O=C(C1CCCN(c2ccc3cc(S(=O)(=O)N4CCCC4)ccc3n2)C1)N1CCc2ccccc21` (stereo not drawn) the figure was 884 s; with `O=C(NC1CCN(c2nnc3ccccn23)CC1)c1ccc2c(c1)OCO2`, 628 s; with `CCCC(=O)Nc1ccc2nc(N3CCN(c4cccc(OC)c4)CC3)cc(C(=O)O)c2c1`, 647 s.
In turn, `Cn1cnnc1C1CCCCN1C(=O)c1cc(-c2cccs2)[nH]n1` (stereo not drawn) registered an RP-LC retention time of 637 s.
`O=C(Nc1ccc(F)cc1F)c1cnc(-c2ccccc2)nc1-c1ccncc1`: the RP-LC retention time was 874 s.
`CC(=O)C1=C(O)C(=O)N(C(C)c2ccccc2)C1c1ccccc1` (stereo not drawn) gave an RP-LC retention time of 836 s.
For `Cc1nc2cc(N3CCC(C(=O)Nc4ccc5c(c4)OCO5)CC3)cnc2nc1C`, the RP-LC retention time is 695 s.
`CCCN(CC1CCOC1)S(=O)(=O)c1ccc(OC)c(Cl)c1` (stereo not drawn): the RP-LC retention time was 936 s.
As to `O=C1COc2ccc(-c3csc(NC(=O)c4ccc(Cl)cc4)n3)cc2N1`, the RP-LC retention time was found to be 899 s.
With `Cc1cc(C(=O)NCc2ccco2)c2c(C)nn(-c3ccccc3Cl)c2n1` the figure was 860 s.
With `CCOc1c(C(=O)OC)sc2ccc(NC(=O)c3[nH]nc4c3CCc3ccccc3-4)cc12` the figure was 1140 s.
With `CCOC(=O)c1cc(-c2ccccc2)n(CCC(=O)N2CCN(c3ccccn3)CC2)c1C` the figure was 715 s; with `O=C(Cn1cnc2nc(N3CCC(C(=O)NC4CC4)CC3)sc2c1=O)Nc1cc(F)cc(F)c1`, 694 s; with `COc1ccc(C2Cn3nnc(C(=O)NC4CCCCCC4)c3CO2)cc1` (stereo not drawn), 1040 s.
The compound `Cc1ccc(C(C)C)cc1S(=O)(=O)Nc1cccc(-c2cn3ccccc3n2)c1` came in with an RP-LC retention time of 739 s.
Compound `O=C1CC(c2noc(-c3ccc(F)cc3)n2)CN1c1ccc(F)cc1` (stereo not drawn) registered an RP-LC retention time of 961 s.
With `CCOC(=O)N1CCN(C(=O)Cn2ccc3ccccc32)CC1` the figure was 731 s.
Consider `CC1=C(c2ccc(C(C)C)cc2)S(=O)(=O)N=C1N1CCC(C(=O)NCCc2ccco2)CC1`, for which the RP-LC retention time was 947 s.
As to `CC(C(=O)N1CCN(c2ccccn2)CC1)N1Cc2ccccc2C1=O` (stereo not drawn), the RP-LC retention time turned out to be 587 s.
Under `Cc1nnc2n1CCC(NC(=O)Cc1ccsc1)CC2` (stereo not drawn) stands 573 s; under `CN(C)c1ccc(CNC(=O)Cn2cc(-c3nnco3)c3ccccc32)cc1`, 615 s.
As to `Cc1ccc(NC(=O)C2CC(=O)N(c3n[nH]c4ccccc34)C2)nc1` (stereo not drawn), the RP-LC retention time turned out to be 594 s.
With `Cc1ccc(CNC(=O)C2(C)CN(S(C)(=O)=O)CC(=O)N2c2cc(Cl)ccc2C)cc1` (stereo not drawn), the RP-LC retention time is 829 s.
`Cc1c(C(=O)N2CCC(C(=O)N3CC=C(c4ccccc4)CC3)CC2)sc2nc[nH]c(=O)c12` yielded an RP-LC retention time of 728 s.
For `O=C(NCc1cnoc1-c1ccc(F)cc1)c1c(F)cccc1F`, the RP-LC retention time was found to be 817 s.
With `Cc1ccccc1N1CCN(C(=O)c2cc(C)n3nccc3n2)CC1` the figure was 883 s.
Compound `COc1ccc(NC(=O)Cn2nc3cc(C)nc(-c4ccccc4)n3c2=O)cc1OC` yielded an RP-LC retention time of 736 s.
`CCOc1ccc(NC(=O)c2cnn(-c3ccc(Br)cc3)c2)cc1` returned an RP-LC retention time of 1030 s.
Regarding `CCc1cccc(NC(=O)C2CC(=O)N(c3ccc4oc(C)nc4c3)C2)c1` (stereo not drawn), the RP-LC retention time was found to be 785 s.

Values taken from the METLIN SMRT retention time set (Domingo-Almenara et al. 2019).
